The results in this text go back to US7179800B2 (priority 2002, dated 2007).

Assay [1] deals with Male ICR mice. The experiment in a line: Suppression of spontaneous activity (SA) in mice. The format is in vivo, mouse. Particulars: Mus musculus, iv, mice, i.v.
A further assay has as its target CB1 receptor (Rattus norvegicus, UniProt P20272). The assay is described as follows: CB1 binding procedure: displacement of [3H]CP 55,940 from rat whole-brain P2 membranes. The arrangement: whole brain was homogenized and centrifuged; from tissue; host or cells: rat whole brain, P2 membrane fraction. Particulars: for Ki: means ± SEM, [3H]CP 55,940, rat brain membranes, read-out: Ki (nM) CB1; for fold decrease in CB1 affinity: relative to the comparator analog.

Assay [2] deals with Male ICR mice. The assay is described as follows: Change in rectal temperature (RT) in mice. The format is in vivo, mouse. Particulars: Mus musculus, iv, mice, i.v.
The test system of assay [3] is Male ICR mice. The assay is described as follows: Tail-flick antinociception (TF, % MPE) in mice. Type of assay: in vivo, mouse. Particulars: Mus musculus, iv, mice, i.v.
Where [4] appears, read: 95% confidence limits in parentheses, read-out: ED50 SA (suppression of spontaneous activity).
Where [5] appears, read: 95% confidence limits in parentheses, read-out: ED50 RT (rectal temperature).
The mark [6] stands for this setting: 95% confidence limits in parentheses, read-out: ED50 TF (antinociceptive effect in tail flick assay).

The structures appear in SMILES notation.

Sequence of CB1 receptor (P20272 whole entry): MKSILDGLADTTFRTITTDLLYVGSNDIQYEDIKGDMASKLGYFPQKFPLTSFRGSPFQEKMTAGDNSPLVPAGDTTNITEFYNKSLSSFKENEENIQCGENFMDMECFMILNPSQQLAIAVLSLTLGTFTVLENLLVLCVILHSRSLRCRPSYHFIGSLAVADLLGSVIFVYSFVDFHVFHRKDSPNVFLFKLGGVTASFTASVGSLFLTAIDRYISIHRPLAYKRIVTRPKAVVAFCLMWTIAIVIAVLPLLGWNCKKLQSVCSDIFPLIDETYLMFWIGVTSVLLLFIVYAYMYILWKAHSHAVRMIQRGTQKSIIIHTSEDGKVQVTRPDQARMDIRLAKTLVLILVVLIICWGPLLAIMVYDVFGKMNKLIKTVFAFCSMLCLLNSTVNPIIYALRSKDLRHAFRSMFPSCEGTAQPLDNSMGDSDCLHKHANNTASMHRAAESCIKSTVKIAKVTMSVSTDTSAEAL

Regarding `CCCCCCC(C)(C)c1cc(O)c(C2CCSC2)c(O)c1` (stereo not shown) [O-1661, 2-(Tetrahydrothiophen-3-yl)-5-(1′,1′-dimethylheptyl)-re-sorcinol], the 50% effective dose (ED50) in the assay on Male ICR mice [1] (Table 6, read-out: S.A ED50) stood at 2.65 mg/kg; in the assay on Male ICR mice [1] (setting [4]), 24 µmol/kg; in the assay on Male ICR mice [2] (Table 6, read-out: R.T. ED50), 7.78 mg/kg; in the assay with Male ICR mice [2] (setting [5]), 24 µmol/kg; in the assay on Male ICR mice [3] (Table 6, read-out: T.F. ED50) it was 4.39 mg/kg; with Male ICR mice [3] (setting [6]) it was 14 µmol/kg. The inhibition constant Ki on CB1 receptor was 138 ± 4 nM.
On to `CCCCCCC(C)(C)c1cc(O)c(C2CCCCC2C)c(O)c1` (stereo not shown) [O-1658, 2-(2-Methylcyclohexyl)-5-(1′,1′-dimethylheptyl)-resorcinol], for which the 50% effective dose (ED50) in the assay with Male ICR mice [1] (Table 6, read-out: S.A ED50) amounted to 0.06 mg/kg; in the assay with Male ICR mice [1] (setting [4]), 0.2 µmol/kg; in the assay with Male ICR mice [2] (Table 6, read-out: R.T. ED50) it was 0.12 mg/kg; with Male ICR mice [2] (setting [5]), 0.3 µmol/kg; with Male ICR mice [3] (Table 6, read-out: T.F. ED50) it was 0.09 mg/kg; in the assay with Male ICR mice [3] (setting [6]), 0.3 µmol/kg. In addition, on CB1 receptor, the Ki worked out at 16 ± 2 nM.
Consider `CCCCCCC(C)(C)c1cc(O)c(C2CCSCC2)c(O)c1` [O-1425], for which the ED50 turned out to be 5.82 mg/kg with Male ICR mice [1] (Table 6, read-out: S.A ED50); 17 µmol/kg in the assay on Male ICR mice [1] (setting [4]); 4.53 mg/kg in the assay on Male ICR mice [2] (Table 6, read-out: R.T. ED50); 13 µmol/kg in the assay on Male ICR mice [2] (setting [5]); 5.05 mg/kg with Male ICR mice [3] (Table 6, read-out: T.F. ED50); 15 µmol/kg in the assay with Male ICR mice [3] (setting [6]). The Ki at CB1 receptor was determined as 153 ± 17 nM. Moreover, on CB1 receptor, the “fold decrease in CB1 affinity” value was 14 fold.
For the compound `CCCC(C)(C)c1cc(O)c(C2CCCC(C)C2)c(O)c1` (stereo not shown) [O-1890, 2-(3-Methylcyclohexyl)-5-(1′,1′-dimethylbutyl)-resorcinol], the median effective dose (ED50) was found to be 20 mg/kg in the assay on Male ICR mice [1] (Table 6, read-out: S.A ED50); 69 µmol/kg in the assay on Male ICR mice [1] (setting [4]); 21 mg/kg with Male ICR mice [2] (Table 6, read-out: R.T. ED50); 72 µmol/kg in the assay on Male ICR mice [2] (setting [5]); 14 mg/kg in the assay on Male ICR mice [3] (Table 6, read-out: T.F. ED50); 48 µmol/kg with Male ICR mice [3] (setting [6]). For the same compound, at CB1 receptor, the Ki came to 96 ± 4 nM.
In the case of `CCCCCCC(C)(C)c1cc(O)c(C2CCCC(C)C2)c(O)c1` (mixture of isomers) [O-1657, 2-(3-Methylcyclohexyl)-5-(1′,1′-dimethylheptyl)-resorcinol], the median effective dose (ED50) in the assay with Male ICR mice [1] (Table 6, read-out: S.A ED50) was 0.13 mg/kg; in the assay with Male ICR mice [1] (setting [4]), 0.3 µmol/kg; in the assay on Male ICR mice [2] (Table 6, read-out: R.T. ED50), 0.29 mg/kg; in the assay on Male ICR mice [2] (setting [5]), 0.9 µmol/kg; in the assay with Male ICR mice [3] (Table 6, read-out: T.F. ED50) it was 0.23 mg/kg; in the assay on Male ICR mice [3] (setting [6]) it was 0.6 µmol/kg. Moreover, the Ki on CB1 receptor was 14 nM.
On to `CCCCCCC(C)(C)c1cc(O)c([C@H]2CCCC(C)C2)c(O)c1` (single isomer, unassigned) [O-1826], for which the ED50 with Male ICR mice [1] (Table 6, read-out: S.A ED50) was determined as 0.915 mg/kg; in the assay on Male ICR mice [1] (setting [4]) it was 2.7 µmol/kg; in the assay with Male ICR mice [2] (Table 6, read-out: R.T. ED50), 1.16 mg/kg; in the assay with Male ICR mice [2] (setting [5]), 3.6 µmol/kg; with Male ICR mice [3] (Table 6, read-out: T.F. ED50), 0.821 mg/kg; in the assay on Male ICR mice [3] (setting [6]) it was 2.4 µmol/kg. For the same compound, the inhibition constant Ki at CB1 receptor worked out at 40 nM.
For `CCCCCCC(C)(C)c1cc(O)c(C2CCC(C)CC2)c(O)c1` (stereo not shown) [O-1659, 2-(4-Methylcyclohexyl)-5-(1′,1′-dimethylheptyl)-resorcinol], the 50% effective dose (ED50) with Male ICR mice [1] (Table 6, read-out: S.A ED50) came to 1.65 mg/kg; with Male ICR mice [1] (setting [4]), 4.8 µmol/kg; in the assay on Male ICR mice [2] (Table 6, read-out: R.T. ED50), 1.12 mg/kg; in the assay on Male ICR mice [2] (setting [5]), 3.3 µmol/kg; in the assay with Male ICR mice [3] (Table 6, read-out: T.F. ED50) it was 1.35 mg/kg; in the assay with Male ICR mice [3] (setting [6]) it was 3.9 µmol/kg. In addition, the Ki at CB1 receptor turned out to be 45 ± 1 nM. Further, the “fold decrease in CB1 affinity” value on CB1 receptor is “about 5 fold”.
For `CCCCCCC(C)(C)c1cc(O)c(C2C3CC4CC(C3)CC2C4)c(O)c1` (stereo not shown) [O-1660, 2-(2-Adamantyl)-5-(1′,1′-di-methylheptyl)-resorcinol], the ED50 with Male ICR mice [1] (Table 6, read-out: S.A ED50) came to 1.27 mg/kg; in the assay with Male ICR mice [1] (setting [4]), 3.5 µmol/kg; in the assay with Male ICR mice [2] (Table 6, read-out: R.T. ED50), 1.73 mg/kg; in the assay on Male ICR mice [2] (setting [5]) it was 4.6 µmol/kg; with Male ICR mice [3] (Table 6, read-out: T.F. ED50) it was 0.911 mg/kg; with Male ICR mice [3] (setting [6]), 2.4 µmol/kg. Besides, the Ki on CB1 receptor is 7 ± 1 nM.
`CCCCCCC(C)(C)c1cc(O)c(C2=CCCCC2)c(O)c1` [O-1423]: the median effective dose (ED50) in the assay with Male ICR mice [1] (Table 6, read-out: S.A ED50) was determined as 3.92 mg/kg; in the assay on Male ICR mice [1] (setting [4]) it was 12 µmol/kg; in the assay with Male ICR mice [2] (Table 6, read-out: R.T. ED50), 2.94 mg/kg; with Male ICR mice [2] (setting [5]), 9 µmol/kg; in the assay with Male ICR mice [3] (Table 6, read-out: T.F. ED50), 2.86 mg/kg; in the assay with Male ICR mice [3] (setting [6]) it was 9 µmol/kg. Further, on CB1 receptor, the Ki stood at 97 ± 5 nM.
Regarding `CCCCCCC(C)(C)c1ccc(-c2cc(C)ccc2C(C)C)c(O)c1` [O-1376, 3-1′,1′-Dimethylheptyl-6-(2-isopropyl-5-methylphenyl)phenol], the 50% effective dose (ED50) with Male ICR mice [1] (Table 6, read-out: S.A ED50) was 2.94 mg/kg; in the assay with Male ICR mice [1] (setting [4]), 8.5 µmol/kg; with Male ICR mice [2] (Table 6, read-out: R.T. ED50) it was 0.822 mg/kg; in the assay with Male ICR mice [2] (setting [5]) it was 2.3 µmol/kg; in the assay on Male ICR mice [3] (Table 6, read-out: T.F. ED50), 1.97 mg/kg; with Male ICR mice [3] (setting [6]) it was 5.7 µmol/kg. Further, the inhibition constant (Ki) at CB1 receptor is 33 ± 4 nM.
Regarding `CCCCCCC(C)(C)c1cc(O)c(C2CCCCC2)c(O)c1` [O-1422, Cyclohexyl-5-(1′,1′-dimethylheptyl)-resorcinol], the median effective dose (ED50) worked out at 0.379 mg/kg in the assay with Male ICR mice [1] (Table 6, read-out: S.A ED50); 0.1 µmol/kg in the assay on Male ICR mice [1] (setting [4]); 0.194 mg/kg with Male ICR mice [2] (Table 6, read-out: R.T. ED50); 0.6 µmol/kg in the assay with Male ICR mice [2] (setting [5]); 0.241 mg/kg with Male ICR mice [3] (Table 6, read-out: T.F. ED50); 0.6 µmol/kg with Male ICR mice [3] (setting [6]). The Ki on CB1 receptor was determined as 11 ± 2 nM.
